Measurements from ChEMBL document CHEMBL5108027, “An unanticipated discovery of novel naphthalimidopropanediols as potential broad-spectrum antibacterial members” (Eur J Med Chem, 2022).
≈ marks a conversion by molar mass, not a printed value. Calls of active or inactive are those of the source. The calls are words filed in the database; no cut-off is given here.

Key:
Staphylococcus aureus [1] = assay: Antibacterial activity against methicillin-resistant Staphylococcus aureus N315 measured by Muller-Hinton broth based microdilution assay; format: functional
Enterococcus faecalis = assay: Antibacterial activity against Enterococcus faecalis measured by Muller-Hinton broth based microdilution assay; format: functional
Staphylococcus aureus [2] = assay: Antibacterial activity against Staphylococcus aureus measured by Muller-Hinton broth based microdilution assay; format: functional
Staphylococcus aureus [3] = assay: Antibacterial activity against Staphylococcus aureus ATCC 25923 measured by Muller-Hinton broth based microdilution assay; format: functional
Staphylococcus aureus [4] = assay: Antibacterial activity against Staphylococcus aureus ATCC 29213 measured by Muller-Hinton broth based microdilution assay; format: functional
Klebsiella pneumoniae = assay: Antibacterial activity against Klebsiella pneumoniae measured by Muller-Hinton broth based microdilution assay; format: functional
Escherichia coli [5] = assay: Antibacterial activity against Escherichia coli measured by Muller-Hinton broth based microdilution assay; format: functional
Pseudomonas aeruginosa [6] = assay: Antibacterial activity against Pseudomonas aeruginosa measured by Muller-Hinton broth based microdilution assay; format: functional
Acinetobacter baumannii = assay: Antibacterial activity against Acinetobacter baumannii measured by Muller-Hinton broth based microdilution assay; format: functional
Pseudomonas aeruginosa [7] = assay: Antibacterial activity against Pseudomonas aeruginosa ATCC 27853 measured by Muller-Hinton broth based microdilution assay; format: functional
Escherichia coli [8] = assay: Antibacterial activity against Escherichia coli ATCC 25922 measured by Muller-Hinton broth based microdilution assay; format: functional
Staphylococcus aureus [9] = assay: Antibacterial activity against Staphylococcus aureus assessed as fold increase in MIC measured after 16 passages by resistance development assay; format: functional
Pseudomonas aeruginosa [10] = assay: Antibacterial activity against Pseudomonas aeruginosa assessed as fold increase in MIC measured after 16 passages by resistance development assay; format: functional
[11] = Hemolytic activity in human RBC measured after 1 hr; format: toxicity, cell-based, Erythrocyte; conditions: human red blood cells (erythrocytes)
[12] = Selectivity ratio of HC50 for hemolytic activity in human RBC to MIC for antibacterial activity against Pseudomonas aeruginosa; format: toxicity; conditions: human red blood cells (erythrocytes)
[13] = Hemolytic activity in human RBC assessed as hemolytic rate at 2 to 512 ug/ml and measured after 1 hr; format: toxicity, cell-based, Erythrocyte; conditions: human red blood cells (erythrocytes), at 2 to 512 µg/mL, dose 2-512 µg/ml, read-out: Activity
Pseudomonas aeruginosa [14] = assay: Antibacterial activity against Pseudomonas aeruginosa measured after 16 passages by resistance development assay; format: functional, organism-based
Pseudomonas aeruginosa [15] = assay: Inhibition of bacterial growth of Pseudomonas aeruginosa at 1 to 2 times MIC; format: functional
Pseudomonas aeruginosa [16] = assay: Bactericidal activity against Pseudomonas aeruginosa assessed as reduction in number of colonies at 0.5 to 2 times MIC measured within 6 hrs by time-kill assay; format: functional, organism-based
Pseudomonas aeruginosa [17] = assay: Induction of membrane depolarization in Pseudomonas aeruginosa at 0.5 to 2 times MIC measured upto 1 hr by DiSC35 dye-based fluorescence assay; format: functional, organism-based
Pseudomonas aeruginosa [18] = assay: Induction of outer membrane permeabilization in Pseudomonas aeruginosa preincubated for 30 mins at 1 to 8 times MIC measured by NPN fluorescent dye based assay; format: functional, organism-based
Pseudomonas aeruginosa [19] = assay: Induction of inner membrane permeabilization in Pseudomonas aeruginosa by measuring increase in fluorescence intensity at 1 to 8 times MIC by calcein-AM/PI staining based fluorescence analysis; format: functional, organism-based
Pseudomonas aeruginosa [20] = assay: Disruption of membrane integrity in Pseudomonas aeruginosa at 8 times MIC by calcein-AM/PI staining based fluorescence analysis; format: functional, organism-based
Pseudomonas aeruginosa [21] = assay: Disruption of membrane integrity in Pseudomonas aeruginosa assessed as increase in nucleic acid leakage by measuring increase in absorbance 1 to 8 times MIC measured for 6 hrs by spectrophotometry; format: functional, organism-based
Pseudomonas aeruginosa [22] = assay: Disruption of membrane integrity in Pseudomonas aeruginosa assessed as increase in protein leakage by measuring increase in absorbance 1 to 8 times MIC measured for 6 hrs by Bradford assay; format: functional, organism-based
Pseudomonas aeruginosa [23] = assay: Antibacterial activity against Pseudomonas aeruginosa assessed as reduction in LDH activity at 1 to 8 times MIC measured after 6 hrs by microplate reader method; format: functional; design: scale not given: the % may be the effect or the level left
Pseudomonas aeruginosa [24] = assay: Induction of oxidative stress in Pseudomonas aeruginosa assessed as increase in intracellular ROS level at 1 to 8 times MIC measured after 6 hrs by DCFH-DA staining method; format: functional, organism-based
Pseudomonas aeruginosa [25] = assay: Induction of oxidative stress in Pseudomonas aeruginosa assessed as decrease in GSH activity at 1 to 8 times MIC measured after 6 hrs by Ellman's assay; format: functional, organism-based
Pseudomonas aeruginosa [26] = assay: Antibacterial activity against Pseudomonas aeruginosa assessed as reduction in metabolic activity at 1 to 8 times MIC measured after 6 hrs by Alamar blue assay; format: functional, organism-based
Pseudomonas aeruginosa [27] = assay: Inhibition of biofilm formation in Pseudomonas aeruginosa at 1 to 8 times MIC measured after 24 hrs by crystal violet staining method; format: functional, organism-based
Pseudomonas aeruginosa [28] = assay: Antibiofilm activity in Pseudomonas aeruginosa at 1 to 8 times MIC measured by Alamar blue assay; format: functional, organism-based
L929 = assay: Cytotoxicity against mouse L929 cells assessed as effect on cell growth at 0.25 to 0.5 ug/ml incubated for 24 hrs by MTT assay; format: toxicity, cell-based; conditions: l929, 24 h, dose 0.25-0.5 µg/ml

Work on `CCn1cc(C(=O)O)c(=O)c2cc(F)c(N3CCNCC3)cc21` [NORFLOXACIN] yielded an MIC (Staphylococcus aureus [1]) of 16 µg/mL (≈ 50.1 µM), an MIC (Enterococcus faecalis) of 8 µg/mL (≈ 25.1 µM) and an MIC (Staphylococcus aureus [2]) of 8 µg/mL (≈ 25.1 µM). The MIC (Staphylococcus aureus [3]) was 16 µg/mL (≈ 50.1 µM), the MIC (Staphylococcus aureus [4]) was 16 µg/mL (≈ 50.1 µM) and the MIC (Klebsiella pneumoniae) was 4 µg/mL (≈ 12.5 µM). The MIC (Escherichia coli [5]) was 2 µg/mL (≈ 6.26 µM), the MIC (Pseudomonas aeruginosa [6]) was 4 µg/mL (≈ 12.5 µM) and the MIC (Acinetobacter baumannii) was 1 µg/mL (≈ 3.13 µM). The MIC (Pseudomonas aeruginosa [7]) was 2 µg/mL (≈ 6.26 µM), the MIC (Escherichia coli [8]) was 4 µg/mL (≈ 12.5 µM) and the “fold change (FC)” value (Staphylococcus aureus [9]) was 64. For the same molecule, the “fold change (FC)” value (Pseudomonas aeruginosa [10]) was 128.

For `O=C1c2cccc3c(N/N=C/c4ccc5ccccc5c4)ccc(c23)C(=O)N1C(CO)CO`, the MIC (Staphylococcus aureus [1]) was 64 µg/mL (≈ 146 µM), the MIC (Enterococcus faecalis) was 64 µg/mL (≈ 146 µM) and the MIC (Staphylococcus aureus [2]) was 4 µg/mL (≈ 9.1 µM). The MIC (Staphylococcus aureus [3]) was 64 µg/mL (≈ 146 µM), the MIC (Staphylococcus aureus [4]) was 128 µg/mL (≈ 291 µM) and the MIC (Klebsiella pneumoniae) was 32 µg/mL (≈ 72.8 µM). For the same molecule, the MIC (Escherichia coli [5]) was 16 µg/mL (≈ 36.4 µM), the MIC (Pseudomonas aeruginosa [6]) was 0.5 µg/mL (≈ 1.14 µM) and the MIC (Acinetobacter baumannii) was 64 µg/mL (≈ 146 µM). The MIC (Pseudomonas aeruginosa [7]) was 1 µg/mL (≈ 2.28 µM), the MIC (Escherichia coli [8]) was 32 µg/mL (≈ 72.8 µM) and the HC50 at 1 h [11] was > 1000 µg/mL. The selectivity ratio [12] was > 2000, the hemolysis at 1 h [13] was < 5% and the Activity (Pseudomonas aeruginosa [14]) was “Active”. The inhibition (Pseudomonas aeruginosa [15]) was “Active”, the Activity (Pseudomonas aeruginosa [16]) was “Active” and the Activity (Pseudomonas aeruginosa [17]) was “Active”. For the same molecule, the Activity (Pseudomonas aeruginosa [18]) was “Active”, the Activity (Pseudomonas aeruginosa [19]) was “Active” and the Activity (Pseudomonas aeruginosa [20]) was “Active”. The Activity (Pseudomonas aeruginosa [21]) was “Active”, the Activity (Pseudomonas aeruginosa [22]) was “Active” and the Activity (Pseudomonas aeruginosa [23]) was 70%. The Activity (Pseudomonas aeruginosa [24]) was “Active”, the Activity (Pseudomonas aeruginosa [25]) was “Active” and the Activity (Pseudomonas aeruginosa [26]) was “Active”. For the same molecule, the inhibition (Pseudomonas aeruginosa [27]) was “Active”, the Activity (Pseudomonas aeruginosa [28]) was “Active” and the Activity (L929) was “Non-Toxic”.
